Assay results published in PubChem BioAssay AID256 (DTP/NCI, 2004).
Where “and” joins values, the source holds several entries; their conditions need not be identical. Identical values can stand only once. Toxic doses and inconclusive results are not listed.

System: CD2F1 mice, L1210 leukemia ip, survival T/C
Test: NCI In Vivo Anticancer Drug Screen. Data for tumor model L1210 Leukemia (intraperitoneal) in CD2F1 (CDF1) mice
Settings: higher = longer survival
Summary of the method: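 Transplantable tumor in mice; compound-treated vs vehicle-treated groups. Read-out = treated/control ratio of the measured endpoint.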

[1] = endpoint: mean survival time, dose: 100.0 mg/kg/injection, schedule: Q04DX003 (ip), vehicle: saline with Tween-80
[2] = endpoint: mean survival time, dose: 200.0 mg/kg/injection, schedule: Q04DX003 (ip), vehicle: saline with Tween-80
[3] = endpoint: mean survival time, dose: 400.0 mg/kg/injection, schedule: Q04DX003 (ip), vehicle: saline with Tween-80
[4] = endpoint: mean survival time, dose: 100.0 mg/kg/injection, schedule: Q01DX001 (ip), vehicle: saline with Tween-80
[5] = endpoint: mean survival time, dose: 200.0 mg/kg/injection, schedule: Q01DX001 (ip), vehicle: saline with Tween-80
[6] = endpoint: mean survival time, dose: 200.0 mg/kg/injection, schedule: Q01DX001 (ip), vehicle: saline
[7] = endpoint: mean survival time, dose: 400.0 mg/kg/injection, schedule: Q01DX001 (ip), vehicle: saline

O=P(Cl)(Oc1cccc2c(OP(=O)(Cl)N(CCCl)CCCl)cccc12)N(CCCl)CCCl (configuration not stated)
T/C (endpoint: mean survival time, dose: 31.25 mg/kg/injection, schedule: Q01DX001 (ip), vehicle: distilled water + Tween-80): 100 % of control
T/C (endpoint: mean survival time, dose: 62.5 mg/kg/injection, schedule: Q01DX001 (ip), vehicle: distilled water + Tween-80): 101 % of control
T/C (endpoint: mean survival time, dose: 125.0 mg/kg/injection, schedule: Q01DX001 (ip), vehicle: distilled water + Tween-80): 91 % of control
T/C (endpoint: mean survival time, dose: 250.0 mg/kg/injection, schedule: Q01DX001 (ip), vehicle: distilled water + Tween-80): 95 % of control
T/C (endpoint: mean survival time, dose: 500.0 mg/kg/injection, schedule: Q01DX001 (ip), vehicle: distilled water + Tween-80): 92 % of control

C=C1C2CCC3C2C(C)(C)CCCC13C (configuration not stated)
T/C (endpoint: mean survival time, dose: 100.0 mg/kg/injection, schedule: Q01DX009 (ip), vehicle: saline): 98 % of control
T/C [1]: 103 % of control
T/C (endpoint: mean survival time, dose: 200.0 mg/kg/injection, schedule: Q01DX009 (ip), vehicle: saline): 97 % of control
T/C [2]: 104 % of control
T/C (endpoint: mean survival time, dose: 400.0 mg/kg/injection, schedule: Q01DX009 (ip), vehicle: saline): 101 % of control
T/C [3]: 93 % of control

BrC(Br)(c1ccccc1)C1OCCO1
T/C (endpoint: mean survival time, dose: 50.0 mg/kg/injection, schedule: Q01DX001 (ip), vehicle: saline with Tween-80): 107 % of control
T/C (endpoint: mean survival time, dose: 50.0 mg/kg/injection, schedule: Q04DX003 (ip), vehicle: saline with Tween-80): 100 % of control
T/C [4]: 100 % of control
T/C [1]: 101 % of control
T/C [5]: 102 % of control
T/C [2]: 97 % of control

CC(O)CN(C)C (configuration not stated)
T/C (endpoint: mean survival time, dose: 100.0 mg/kg/injection, schedule: Q01DX001 (ip), vehicle: saline): 98 % of control
T/C [6]: 103 % of control
T/C [7]: 103 % of control

O=P1(NCCCl)OCCCN1CCCl (configuration not stated)
T/C (endpoint: mean survival time, dose: 25.0 mg/kg/injection, schedule: Q01DX001 (ip), vehicle: DMSO): 111 % of control
T/C (endpoint: mean survival time, dose: 25.0 mg/kg/injection, schedule: Q01DX001 (ip), vehicle: saline): 102 % of control
T/C (endpoint: mean survival time, dose: 50.0 mg/kg/injection, schedule: Q01DX001 (ip), vehicle: saline): 122 % of control
T/C (endpoint: mean survival time, dose: 100.0 mg/kg/injection, schedule: Q01DX001 (ip), vehicle: DMSO): 153 % of control
T/C (endpoint: mean survival time, dose: 200.0 mg/kg/injection, schedule: Q01DX001 (ip), vehicle: DMSO): 397 % of control
T/C [6]: 170 % of control
T/C (endpoint: mean survival time, dose: 400.0 mg/kg/injection, schedule: Q01DX001 (ip), vehicle: DMSO): 430 % of control
T/C (endpoint: mean survival time, dose: 400.0 mg/kg/injection, schedule: Q01DX001 (ip), vehicle: clinical formulation): 416 % of control
T/C [7]: 326 % of control and 685 % of control
T/C (endpoint: mean survival time, dose: 600.0 mg/kg/injection, schedule: Q01DX001 (ip), vehicle: clinical formulation): 437 % of control
T/C (endpoint: mean survival time, dose: 600.0 mg/kg/injection, schedule: Q01DX001 (ip), vehicle: saline): 451 % of control
T/C (endpoint: median survival time, dose: 108.0 mg/kg/injection, schedule: Q01DX001 (ip), vehicle: water): 155 % of control and 157 % of control
T/C (endpoint: median survival time, dose: 180.0 mg/kg/injection, schedule: Q01DX001 (ip), vehicle: water): 166 % of control and 173 % of control
T/C (endpoint: median survival time, dose: 300.0 mg/kg/injection, schedule: Q01DX001 (ip), vehicle: saline): 315 % of control
T/C (endpoint: median survival time, dose: 300.0 mg/kg/injection, schedule: Q01DX001 (ip), vehicle: water): 200 % of control and 215 % of control
T/C (endpoint: median survival time, dose: 300.0 mg/kg/injection, schedule: Q01DX001 (iv), vehicle: saline): 223 % of control
T/C (endpoint: median survival time, dose: 450.0 mg/kg/injection, schedule: Q01DX001 (ip), vehicle: saline): 616 % of control
T/C (endpoint: median survival time, dose: 450.0 mg/kg/injection, schedule: Q01DX001 (iv), vehicle: saline): 616 % of control
T/C (endpoint: median survival time, dose: 500.0 mg/kg/injection, schedule: Q01DX001 (ip), vehicle: water): 65 % of control

CCC(=O)n1nc(-c2ccccc2)c2ccccc21
T/C (endpoint: mean survival time, dose: 25.0 mg/kg/injection, schedule: Q04DX002 (ip), vehicle: saline with Tween-80): 100 % of control
T/C (endpoint: mean survival time, dose: 50.0 mg/kg/injection, schedule: Q04DX002 (ip), vehicle: saline with Tween-80): 88 % of control
T/C (endpoint: mean survival time, dose: 100.0 mg/kg/injection, schedule: Q04DX002 (ip), vehicle: saline with Tween-80): 96 % of control
T/C (endpoint: mean survival time, dose: 200.0 mg/kg/injection, schedule: Q04DX002 (ip), vehicle: saline with Tween-80): 103 % of control

O=C(O)c1ccc([N+](=O)[O-])cc1[N+](=O)[O-]
T/C [4]: 87 % of control
T/C [5]: 97 % of control
T/C (endpoint: mean survival time, dose: 400.0 mg/kg/injection, schedule: Q01DX001 (ip), vehicle: saline with Tween-80): 91 % of control

CCCCCCCCCCCc1nc(N)n[nH]1
T/C [1]: 98 % of control
T/C [2]: 102 % of control
T/C [3]: 102 % of control

O=C(O)C(O)(c1ccccc1)c1ccsc1 (configuration not stated)
T/C [1]: 101 % of control
T/C [2]: 98 % of control
T/C [3]: 103 % of control

O=C1c2ccccc2C(=O)N1CBr
T/C (endpoint: mean survival time, dose: 12.5 mg/kg/injection, schedule: Q01DX009 (ip), vehicle: saline with Tween-80): 100 % of control
T/C (endpoint: mean survival time, dose: 25.0 mg/kg/injection, schedule: Q01DX009 (ip), vehicle: saline with Tween-80): 97 % of control
T/C (endpoint: mean survival time, dose: 50.0 mg/kg/injection, schedule: Q01DX009 (ip), vehicle: saline with Tween-80): 98 % of control

CCCCCCC(=O)[O][Hg][c]1ccccc1
T/C (endpoint: mean survival time, dose: 9.38 mg/kg/injection, schedule: Q01DX001 (ip), vehicle: saline): 105 % of control
T/C (endpoint: mean survival time, dose: 18.75 mg/kg/injection, schedule: Q01DX001 (ip), vehicle: saline): 100 % of control
T/C (endpoint: mean survival time, dose: 37.5 mg/kg/injection, schedule: Q01DX001 (ip), vehicle: saline): 103 % of control

CC(=O)Oc1ccc2c3c(ccc2c1)C1CCC(=O)C1(C)CC3 (configuration not stated)
T/C [1]: 97 % of control
T/C [2]: 92 % of control
T/C [3]: 97 % of control

N#Cc1cnn2ccn(C3OC(COC(=O)c4ccccc4)C(OC(=O)c4ccccc4)C3OC(=O)c3ccccc3)c12 (configuration not stated)
T/C (endpoint: median survival time, dose: 50.0 mg/kg/injection, schedule: Q01DX005 (ip), vehicle: saline with Tween-80): 90 % of control
T/C (endpoint: median survival time, dose: 100.0 mg/kg/injection, schedule: Q01DX005 (ip), vehicle: saline with Tween-80): 98 % of control
T/C (endpoint: median survival time, dose: 200.0 mg/kg/injection, schedule: Q01DX005 (ip), vehicle: saline with Tween-80): 94 % of control

CNNCc1ccc(/C=N/NC(N)=S)cc1
T/C (endpoint: mean survival time, dose: 6.25 mg/kg/injection, schedule: Q01DX009 (ip), vehicle: water): 96 % of control
T/C (endpoint: mean survival time, dose: 12.5 mg/kg/injection, schedule: Q01DX009 (ip), vehicle: water): 98 % of control
T/C (endpoint: mean survival time, dose: 25.0 mg/kg/injection, schedule: Q01DX009 (ip), vehicle: water): 100 % of control
T/C (endpoint: mean survival time, dose: 50.0 mg/kg/injection, schedule: Q01DX009 (ip), vehicle: water): 86 % of control and 96 % of control
T/C (endpoint: mean survival time, dose: 100.0 mg/kg/injection, schedule: Q01DX009 (ip), vehicle: water): 86 % of control and 96 % of control

NC(=O)c1ccc[n+](Cc2ccccc2)c1
T/C (endpoint: mean survival time, dose: 75.0 mg/kg/injection, schedule: Q01DX001 (ip), vehicle: saline): 98 % of control
T/C (endpoint: mean survival time, dose: 150.0 mg/kg/injection, schedule: Q01DX001 (ip), vehicle: saline): 96 % of control

CCCCOC(=O)c1ccc(NC(=O)NCCC)cc1
T/C (endpoint: mean survival time, dose: 100.0 mg/kg/injection, schedule: Q04DX003 (ip), vehicle: saline): 101 % of control
T/C (endpoint: mean survival time, dose: 200.0 mg/kg/injection, schedule: Q04DX003 (ip), vehicle: saline): 101 % of control
T/C (endpoint: mean survival time, dose: 400.0 mg/kg/injection, schedule: Q04DX003 (ip), vehicle: saline): 97 % of control

CCCn1c2ccccc2c2ccccc21
T/C (endpoint: mean survival time, dose: 100.0 mg/kg/injection, schedule: Q04DX003 (ip), vehicle: Klucel (hydroxypropylcellulose) (HPC)): 91 % of control
T/C (endpoint: mean survival time, dose: 200.0 mg/kg/injection, schedule: Q04DX003 (ip), vehicle: Klucel (hydroxypropylcellulose) (HPC)): 105 % of control
T/C (endpoint: mean survival time, dose: 400.0 mg/kg/injection, schedule: Q04DX003 (ip), vehicle: Klucel (hydroxypropylcellulose) (HPC)): 96 % of control

COC1C(C)OC(OC2CC(C)(O)C(C(=O)O)c3cc4c(c(O)c32)C(=O)c2c(O)cc3c(c2C4=O)OC2OC3(C)C(O)C(N(C)C)C2O)C(OC)C1(C)OC (configuration not stated)
T/C (endpoint: mean survival time, dose: 5.0 mg/kg/injection, schedule: Q01DX009 (ip), vehicle: other): 113 % of control
T/C (endpoint: mean survival time, dose: 10.0 mg/kg/injection, schedule: Q01DX009 (ip), vehicle: other): 107 % of control
T/C (endpoint: mean survival time, dose: 10.0 mg/kg/injection, schedule: Q04DX003 (ip), vehicle: other): 113 % of control
T/C (endpoint: mean survival time, dose: 20.0 mg/kg/injection, schedule: Q01DX009 (ip), vehicle: other): 118 % of control
T/C (endpoint: mean survival time, dose: 20.0 mg/kg/injection, schedule: Q04DX003 (ip), vehicle: other): 113 % of control
T/C (endpoint: mean survival time, dose: 40.0 mg/kg/injection, schedule: Q04DX003 (ip), vehicle: other): 117 % of control
T/C (endpoint: mean survival time, dose: 80.0 mg/kg/injection, schedule: Q04DX003 (ip), vehicle: other): 115 % of control

BrC1CCCCCCC1
T/C [1]: 92 % of control
T/C [2]: 98 % of control
T/C [3]: 95 % of control
